Data from US8557795B2, “Composition containing Chamaecyparis obtusa polysaccharides to be externally applied to the skin” (Amorepacific Corporation, priority 2009, dated 2013).

What was measured:
human skin = experiment: Whitening effect on UVB-darkened human skin (colorimeter); format: in vivo; conditions: UVB-darkened upper arm; 10 weeks of application; solvent control 0.51 ± 0.13
Protocol: In order to examine the whitening effect of the Chamaecyparis obtusa polysaccharide of the present invention on the human skin, the following test was carried out. First, on 12 healthy men as subjects, a 1.5-cm perforated opaque tape was attached to the upper arm portion of the subjects, and then the attached portion was radiated with UVB at a dose about 1.5-2 times the minimal erythema dose of each subject to induce skin darkening.
The color of the skin was measured with a colorimeter CR2002 (Japan, Minolta). Then, the difference (ΔL*) in skin color between the time point of initiation of application and the time point of completion of application (after 10 weeks) of each test material was calculated according to the following equation 3, and the results of the calculation are shown in Table 5 below.
Meanwhile, the skin whitening effect is evaluated by measuring the ΔL* value between the sample-applied portion and the control portion. […] Difference (ΔL*) skin color=L*value at the time of completion of application−L*value at the time of initiation of application [Formula 3]

human keratinocytes = experiment: Induction of differentiation of human keratinocytes (cornified envelop amount); format: cell-based; conditions: Ca^2+ 1.2 mM (positive control); relative to 100 for low calcium (0.03 mM) control
Protocol: The effect of the Chamaecyparis obtusa polysaccharide of the present invention on the promotion of cell differentiation was examined by measuring the amount of CE (cornified envelop) produced during differentiation of keratinocytes and a human keratinocyte cell line (HaCaT).
Primarily cultured human keratinocytes were placed in a culture flask and allowed to adhere to the bottom of the flask, and then calcium and the Chamaecyparis obtusa polysaccharide were added to the culture media at varying concentrations. The cells were cultured for 5 days to a confluency of about 70-80%. The cultured cells were harvested and washed with PBS (phosphate buffered saline), and then 1 ml of 10 mM Tris-HCl buffer (pH 7.4), containing 2% SDS (sodium dodecyl sulfate) and 20 mM DTT (dithiothreitol), was added to the cells. The cell solution was sonicated, boiled and centrifuged, and the resulting precipitate was suspended in 1 ml of PBS and measured for absorbance at 340 nm. Meanwhile, a portion of the solution after the sonication was taken and measured for its protein content, and the measured value was used as a standard for evaluating the degree of cell differentiation. […] Each of the measurement values was calculated relative to 100 for the negative control (low calcium concentration), and the results of the calculation are shown in Table 6 below.

transglutaminase = experiment: Expression of transglutaminase in human keratinocytes; format: cell-based; conditions: Ca^2+ 1.2 mM (positive control); relative to 100 for low calcium (0.03 mM) control
Protocol: Human skin cells were placed in a 96-well plate at a concentration of 5×10^4 cells/well and attached to the plate for 24 hours. The attached skin cells were treated with the test material, and after 2 days, the medium was removed, and the cells were stored in a refrigerator at […]. The cells were frozen and thawed twice, disrupted and treated with acetone:ethanol (1:1, v/v), stored at −20° C. The treated cells were left to stand at 4° C. for 30 minutes to immobilize the cells. Then, the cells were left to stand at room temperature to evaporate the organic solvent and were blocked with 1% bovine serum albumin. The blocked cells were treated with transglutaminase antibody (primary antibody) and HRP anti-mouse antibody (secondary antibody), and the color development of the cells was carried out by the addition of OPD (o-phenyldiamine). The expression level of transglutaminase in the cells was measured by measuring the absorbance at 490 nm, and the correction was carried out by measuring the background at 630 nm. A low calcium (0.03 mM)-treated group and a high calcium (1.2 mM)-treated group were used as a negative control group and a positive control group, respectively. Each of the measurement values was calculated relative to 100 for the negative control (low calcium concentration), and the results of the calculation are shown in Table 7 below.

[1] = system: TPA-induced mouse ear inflammation; experiment: TPA-induced mouse ear inflammation model; format: in vivo, ICR mice; conditions: 24 hours after TPA, polysaccharide 0.5% in 80% ethanol, indomethacin 0.5 mg/ear
Protocol: The tetradecanoyl phorbol acetate (TPA)-induced mouse ear inflammation model is an experimental method which is widely used to test the mechanism of action of inflammatory responses and the effect of inhibitors (De Young L M et al., Agents and Actions, 26; 335-341 (1989)). In order to confirm the inflammation inhibitory effect of the Chamaecyparis obtusa polysaccharide, 8-week-old male ICR mice (8 animals per group) were prepared. The test group was treated with TPA and applied with a solution of the Chamaecyparis obtusa polysaccharide dispersed in a 80% ethanol aqueous solution, the untreated group was applied with a 80% ethanol aqueous solution alone without treatment with TPA, the negative control group was treated with TPA and applied with a 80% ethanol aqueous solution alone, and the positive control group was treated with TPA and applied with 0.5 mg of indomethacine (Sigma, USA) in place of the Chamaecyparis obtusa polysaccharide. […] The mice of the untreated group, the negative control group and the positive control group were also treated as described above. At 24 hours after application of TPA, the mice were euthanized by cervical dislocation, and the left ear was sampled in a given area, and the weight thereof was measured. […] The inhibition (%) is calculated according to the following equation 4. […]

[2] = system: C57BL/6 mouse melanocytes (Mel-Ab cells); experiment: Melanin production inhibitory effect using mouse melanocytes; format: cell-based; conditions: 72 h, 3 days
Protocol: Mouse melanocytes were used to examine the melanin production inhibitory effect of the Chamaecyparis obtusa polysaccharide of the present invention. First, C57BL/6 mouse melanocytes (Mel-Ab cells) (Dooley, T. P. et al, Skin pharmacol, 7, pp 188-200) were cultured in DMEM (Dulbeccos modified Eagles media), containing 10% fetal bovine serum, 100 nM 2-O-tetradecanoyphorbol-13-acetate and 1 nM cholera toxin, in conditions of 37° C. and 5% CO2. The cultured Mel-Ab cells were detached with 0.25% trypsin-EDTA and cultured in a 24-well culture plate at a concentration of 10^5 cells/well. Then, from 2 days of culture, each of 10 ppm, 50 ppm and 100 ppm of the Chamaecyparis obtusa polysaccharide was continuously added thereto and cultured for 3 days. Herein, arbutin was used as a positive control. Then, the media were removed, and the cells were washed with PBS and lysed with 1N sodium hydroxide. The lysed cells were measured for absorbance at 400 nm, and based on the measured absorbance, the inhibition (%) of melanin production was calculated according to the following equation 2. Inhibition (%) of melanin production=100−(absorbance of each test material/absorbance of control×100) [Equation 2]

type I procollagen = experiment: Type I procollagen assay (ELISA) in human normal fibroblasts; format: cell-based; conditions: 10 ng/Ml; positive control set to 100
Protocol: Human normal fibroblasts were cultured in a 12-well culture plate at a concentration of 10^5 cells/well, and then the medium was replaced with each of media containing 1 ppm, 10 ppm and 50 ppm of the Chamaecyparis obtusa polysaccharide obtained in Preparation Example 1. As a positive control, TGF-β (Human Transforming Growth Factor-β1, Roche Co.) was used. At 3 days of culture, the cells were harvested, and the amount of type I procollagen produced in the cells was measured by an ELISA assay. Each of the measurement values was calculated relative to 0 for a control containing no Chamaecyparis obtusa polysaccharide and 100 for the positive control, and the results of the calculation are shown in Table 1 below.

[3] = system: MMP-1 (matrix metalloproteinase I); experiment: Inhibition of UV-B-induced MMP-1 biosynthesis in human normal fibroblasts (ELISA); format: cell-based; conditions: irradiated with UV-B 40 mJ/cm^2; 10 μM; 2 days; non-irradiated control 100, UV alone 152
Protocol: Human normal fibroblasts were cultured in a 12-well culture plate at a concentration of 10^5 cells/well, and then irradiated with 40 mJ/cm^2 of UV-B, after which the medium was replaced with a medium containing each of 1 ppm, 10 ppm and 50 ppm of the Chamaecyparis obtusa polysaccharide obtained in Preparation Example 1. At 2 days of culture, the cells were harvested, and the amount of MMP-1 (matrix metalloproteinase I) produced in the cells was measured by an ELISA assay. As a positive control, retinoic acid (RA, Sigma, USA) was used. Each of the measurement values was calculated relative to […] for a control containing no Chamaecyparis obtusa polysaccharide and which was not irradiated with UV-B. The results of the calculation are shown in Table 2 below.

Oc1ccc(O)cc1 [Hydroquinone, hydroquinone]
Difference (ΔL*) in skin color (human skin): 1.89 ± 0.15

[Ca+2] [Ca^2+, calcium]
Differentiation (%) of keratinocytes (human keratinocytes): 215% | Expression (%) of transglutaminase (transglutaminase): 138%

COc1ccc2c(c1)c(CC(=O)O)c(C)n2C(=O)c1ccc(Cl)cc1 [Indomethacin, indomethacine]
Inhibition (%) (mean) [1]: 92% | Ear weight (mean ± SD) ([1]; untreated 6.64 ± 0.65, TPA alone 13.21 ± 2.49): 7.20 ± 0.57

OC[C@H]1O[C@@H](Oc2ccc(O)cc2)[C@H](O)[C@@H](O)[C@@H]1O [Arbutin, arbutin]
inhibition at 100 ppm [2]: 52%

TGF-β: Human Transforming Growth Factor-β1, Roche Co.; positive control
Type I procollagen biosynthesis (%) (type I procollagen): 100%

CC1=C(/C=C/C(C)=C/C=C/C(C)=C/C(=O)O)C(C)(C)CCC1 [RA, retinoic acid]
MMP-1 biosynthesis (%) [3]: 45%
